Assay results as given in publication PMC2229644 (The Journal of General Physiology, 1999).

What was measured:
[1] = tested on: MaxiK-channel (large conductance Ca-activated K channel); details: cited from earlier work
[2] = biological target: Shaker H4 Δ(6-46) K channel (inactivation-removed, Shaker IR) (Drosophila melanogaster, UniProt P08510, DEL6-46); assay type: cell-based
[3] = tested on: Shaker K channel, inactivation-removed; details: cited from earlier work
potassium channels = details: cited from earlier work

Chain of Shaker H4 Δ(6-46) K channel (inactivation-removed, Shaker IR) (P08510 1-655 with tags or gaps DEL6-46): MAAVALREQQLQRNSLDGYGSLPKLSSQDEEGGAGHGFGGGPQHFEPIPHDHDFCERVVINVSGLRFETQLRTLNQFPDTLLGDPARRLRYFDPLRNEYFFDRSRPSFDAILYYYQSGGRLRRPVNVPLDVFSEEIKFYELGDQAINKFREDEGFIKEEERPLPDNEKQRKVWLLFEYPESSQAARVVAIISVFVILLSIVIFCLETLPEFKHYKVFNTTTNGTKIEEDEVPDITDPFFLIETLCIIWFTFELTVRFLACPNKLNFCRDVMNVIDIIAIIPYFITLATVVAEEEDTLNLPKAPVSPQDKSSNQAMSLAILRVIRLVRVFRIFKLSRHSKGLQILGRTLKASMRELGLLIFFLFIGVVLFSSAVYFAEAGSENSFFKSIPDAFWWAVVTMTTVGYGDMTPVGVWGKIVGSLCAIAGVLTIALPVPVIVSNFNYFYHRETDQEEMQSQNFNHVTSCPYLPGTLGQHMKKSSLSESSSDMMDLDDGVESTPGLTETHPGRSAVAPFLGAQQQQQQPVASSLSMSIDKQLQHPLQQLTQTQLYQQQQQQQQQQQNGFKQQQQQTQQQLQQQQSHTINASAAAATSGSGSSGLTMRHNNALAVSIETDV

Substance	effect of TEA^+ on CTX association and dissociation rates [1]	effect on apparent association rate of κ-PVIIA [2]	effect on dissociation rate of κ-PVIIA [2]	underestimation of κ-PVIIA k on by 1 mM TEA^+ [2]	effect of external TEA^+ on extent of κ-PVIIA blockade [3]	effective valence zδ in absence of internally present permeant cations [1]	association rate constant, k on (potassium channels)
tetraethylammonium [TEA^+]	only reduces the association rate of CTX	decreases the apparent association rate	little effect on the dissociation rate	~10%	reduces the extent of the blockade	–	–
charybdotoxin [CTX]	–	–	–	–	–	zδ vanishes	6.1e+07 M⁻¹ s⁻¹
